The record followed here is patent US20250325542A1, “INHIBITORS OF ANTIMOCROBIAL RESISTANCE AND METHOS USING SAME” (Baylor College of Medicine, priority 2022, published 2025).

The Ki is the equilibrium dissociation constant of an inhibitor or competing ligand from its target.

Sequence of NDM-1 (C7C422 whole entry, looked up, species assumed): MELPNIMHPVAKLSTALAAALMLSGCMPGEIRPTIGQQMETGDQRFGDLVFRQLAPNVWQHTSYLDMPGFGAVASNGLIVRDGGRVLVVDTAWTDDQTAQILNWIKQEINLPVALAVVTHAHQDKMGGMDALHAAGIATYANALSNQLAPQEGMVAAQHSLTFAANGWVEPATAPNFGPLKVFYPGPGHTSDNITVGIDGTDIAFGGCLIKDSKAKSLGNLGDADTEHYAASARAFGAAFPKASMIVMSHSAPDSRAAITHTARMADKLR

The target in one assay is KPC-2 (Klebsiella pneumoniae, UniProt Q9F663). As to the kind of experiment: KPC-2 enzyme inhibition (Ki).
Sequence of KPC-2 (Q9F663 whole entry, looked up, species assumed): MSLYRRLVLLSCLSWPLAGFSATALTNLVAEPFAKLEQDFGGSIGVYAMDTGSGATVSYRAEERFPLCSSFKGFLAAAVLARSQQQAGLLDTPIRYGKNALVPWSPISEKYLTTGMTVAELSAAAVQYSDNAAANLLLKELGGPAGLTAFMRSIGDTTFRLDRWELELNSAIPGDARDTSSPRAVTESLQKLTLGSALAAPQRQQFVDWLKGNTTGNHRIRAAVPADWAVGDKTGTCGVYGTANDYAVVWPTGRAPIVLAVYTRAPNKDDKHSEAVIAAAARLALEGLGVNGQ
Settings: not given
In kind it is biochemical. The source says: Several hits were identified from the qDOS38_1 library against the KPC-2 enzyme. All compounds were synthesized without linker C1a. Among the hit compounds, CDD-2312 had the highest enrichment score of 5.9 but a lower count number of 115 compared to other libraries screened at the same time.
Turning to `CNC(=O)c1cc2cc(-c3cnc(NCC(=O)O)nc3)ccc2nc1C` [CDD-2310, (5-(2-methyl-3-(methylcarbamoyl)quinolin-6-yl)pyrimidin-2-yl)glycine], affinity was put at a Ki of 1.24 ± 0.532 mM.

`CNC(=O)c1cncc(-c2cnc(NCC(=O)O)nc2)c1` [CDD-2308, (5-(5-(methylcarbamoyl)pyridin-3-yl)pyrimidin-2-yl)glycine]: the affinity, expressed as Ki, was 3.58 ± 1.15 mM.

`CNC(=O)c1ccc(-c2cnc(NCC(=O)O)nc2)cc1F` [CDD-2309, (5-(3-fluoro-4-(methylcarbamoyl)phenyl)pyrimidin-2-yl)glycine] came in with a Ki of 0.98 ± 0.18 mM.

`COc1cc(-c2cnc(NCC(=O)O)nc2)cc(C=O)c1OCC(=O)O` [CDD-2311, (5-(4-(carboxymethoxy)-3-formyl-5-methoxyphenyl)pyrimidin-2-yl)glycine] returned a Ki of 0.522 ± 0.113 mM.

In the next assay the target is OXA-48 (Klebsiella pneumoniae, UniProt Q6XEC0). Put plainly: biochemical. It is filed as biochemical.
Sequence of OXA-48 (Q6XEC0 whole entry, looked up, species assumed): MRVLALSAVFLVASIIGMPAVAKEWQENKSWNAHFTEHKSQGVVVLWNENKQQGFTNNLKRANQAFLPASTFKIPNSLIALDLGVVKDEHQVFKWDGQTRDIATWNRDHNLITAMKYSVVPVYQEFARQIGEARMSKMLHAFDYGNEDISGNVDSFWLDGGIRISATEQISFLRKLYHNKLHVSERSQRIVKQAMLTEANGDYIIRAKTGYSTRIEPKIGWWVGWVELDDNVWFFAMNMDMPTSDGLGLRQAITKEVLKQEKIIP
Settings: not given
Compound `COc1cc(-c2cc(O)cc(C(=O)O)c2)ccc1C(=O)O` [CDD-2724, 5-hydroxy-3′-methoxy-[1,1′-biphenyl]-3,4′-dicarboxylic acid] yielded a Ki of 0.63 ± 0.13 µM.

For `CNC(=O)CCc1ccc(CNc2cccc(CCCNCc3ccccc3-c3cccc(C(=O)O)c3)c2)cc1` [CDD-2819, 2′-(((3-(3-((4-(3-(methylamino)-3-oxopropyl)benzyl)amino)phenyl)propyl)amino)methyl)-[1,1′-biphenyl]-3-carboxylic acid], the inhibitory constant (Ki) turned out to be 88 ± 4.4 µM.

The assay is the same for the next values; noted with them: nitrocefin 30 μM, OXA-48 0.1 nM; read-out: OXA-48 Ki.
For `CN(C)C(=O)C1CCN(c2ccc(CNCc3ccccc3-c3cccc(C(=O)O)c3)cc2C#N)CC1` [CDD-2836, 2′-(((3-cyano-4-(4-(dimethylcarbamoyl)piperidin-1-yl)benzyl)amino)methyl)-[1,1′-biphenyl]-3-carboxylic acid], the Ki turned out to be 7.6 ± 1 µM.

As to `Nc1cccc(CCCNCc2ccccc2-c2cccc(C(=O)O)c2)c1` [CDD-2820, 2′-(((3-(3-aminophenyl)propyl)amino)methyl)-[1,1′-biphenyl]-3-carboxylic acid], the Ki is 127 ± 86 µM.

Staying with this assay, now noted: relative to the related analogue named in the sentence.
As to `COc1cc(-c2cc(O)cc(C(=O)O)c2)ccc1C(=O)O` [CDD-2724, 5-hydroxy-3′-methoxy-[1,1′-biphenyl]-3,4′-dicarboxylic acid], the “fold decrease in Ki / enhancement of potency against OXA-48” value is 2 fold.

The next assay concerns the target NDM-1 (Klebsiella pneumoniae, UniProt C7C422).
Assay: not given
It is filed as biochemical.
Settings: not given
Take `CNCc1ccc(-c2ccc(C(=O)O)c(O)c2)o1` [CDD-2363, 2-hydroxy-4-(5-((methylamino)methyl)furan-2-yl)benzoic acid]: the Ki is 397 ± 113 µM and the “NDM-1 Ki (μM)” value was “weak potency”.

With `Cc1cccc(NCc2cccc(-c3ccc(C(=O)O)c(O)c3)c2)c1` [CDD-2907, 3-hydroxy-3′-((m-tolylamino)methyl)-[1,1′-biphenyl]-4-carboxylic acid], the Ki is > 100 µM and the “NDM-1 Ki (μM)” value is on record as “near-complete loss of potency”.

In the case of `NCc1cccc(NCc2cc(C(=O)O)cc(-c3ccc(C(=O)O)c(O)c3)c2)c1` [CDD-2897, 5-(((3-(aminomethyl)phenyl)amino)methyl)-3′-hydroxy-[1,1′-biphenyl]-3,4′-dicarboxylic acid], the Ki was determined as 71 ± 37 µM and the “fold reduction of potency against NDM-1” value is listed as “more than 10 fold”.

As for `NCc1cccc(NCc2cncc(-c3ccc(C(=O)O)c(O)c3)c2)c1` [CDD-2998, 4-(5-(((3-(aminomethyl)phenyl)amino)methyl)pyridin-3-yl)-2-hydroxybenzoic acid], the Ki stood at 1.9 ± 0.6 µM.

On to `CC(=O)NCc1cccc(NCc2cccc(-c3ccc(C(=O)O)c(O)c3)c2)c1` [CDD-2919, 3′-(((3-(acetamidomethyl)phenyl)amino)methyl)-3-hydroxy-[1,1′-biphenyl]-4-carboxylic acid], for which the Ki was > 100 µM and the “NDM-1 Ki (μM)” value was “near-complete loss of potency”.

In the case of `NCc1cccc(NCc2ccc(-c3ccc(C(=O)O)c(O)c3)s2)c1` [CDD-2600, 4-(5-(((3-(aminomethyl)phenyl)amino)methyl)thiophen-2-yl)-2-hydroxybenzoic acid], the affinity, expressed as Ki, was 1.6 ± 0.3 µM and the “fold improvement in potency against NDM-1” value turned out to be 2 fold.

Compound `NCc1cccc(NC(=O)c2cccc(-c3ccc(C(=O)O)c(O)c3)c2)c1` [CDD-2985, 3′-((3-(aminomethyl)phenyl)carbamoyl)-3-hydroxy-[1,1′-biphenyl]-4-carboxylic acid] yielded a Ki of 29 ± 15 µM.

Consider `CNC(=O)CCc1ccc(CNCc2cccc(NCc3ccc(-c4ccc(C(=O)O)c(O)c4)o3)c2)cc1` [CDD-2335, 2-hydroxy-4-(5-(((3-(((4-(3-(methylamino)-3-oxopropyl)benzyl)amino)methyl)phenyl)amino)methyl)furan-2-yl)benzoic acid], for which the “fold reduction of potency against NDM-1” value amounted to 4 fold.

Take `CNCc1cccc(NCc2ccc(-c3ccc(C(=O)O)cc3)o2)c1` [CDD-2463, 4-(5-(((3-((methylamino)methyl)phenyl)amino)methyl)furan-2-yl)benzoic acid]: affinity was put at a Ki of 8.5 µM and the “fold reduction of potency against NDM-1” value is recorded as 2.5 fold.

With `NCc1cccc(N2Cc3ccc(-c4ccc(C(=O)O)c(O)c4)cc3C2)c1` [CDD-3080, 4-(2-(3-(aminomethyl)phenyl)isoindolin-5-yl)-2-hydroxybenzoic acid], the Ki was found to be 43 ± 24 µM.

Still in this assay, the particulars now being: imipenem 40 μM, NDM-1 2 nM, 10 μM ZnSO4.
As for `CNCc1cccc(NCc2ccc(-c3cccc(C(=O)O)c3)o2)c1` [CDD-2602, 3-(5-(((3-((methylamino)methyl)phenyl)amino)methyl)furan-2-yl)benzoic acid], the Ki amounted to 46 ± 11 µM.

As to `NCc1cccc(NCc2ccnc(-c3ccc(C(=O)O)c(O)c3)c2)c1` [CDD-3060, 4-(4-(((3-(aminomethyl)phenyl)amino)methyl)pyridin-2-yl)-2-hydroxybenzoic acid], the Ki came out at 8.1 ± 2 µM.

As for `NCc1cc(O)cc(NCc2cccc(-c3ccc(C(=O)O)c(O)c3)c2)c1` [CDD-2974, 3′-(((3-(aminomethyl)-5-hydroxyphenyl)amino)methyl)-3-hydroxy-[1,1′-biphenyl]-4-carboxylic acid], affinity was put at a Ki of 3.5 ± 1.4 µM.

`CNC(=O)CCc1ccc(CNCc2cccc(NCc3ccc(-c4ccccc4CC(=O)O)cc3)c2)cc1` [CDD-2336, 2-(4′-(((3-(((4-(3-(methylamino)-3-oxopropyl)benzyl)amino)methyl)phenyl)amino)methyl)-[1,1′-biphenyl]-2-yl)acetic acid] had a Ki of 144 ± 16 µM.

`NCc1cccc(NCc2cc(-c3ccc(C(=O)O)c(O)c3)ccn2)c1` [CDD-3059, 4-(2-(((3-(aminomethyl)phenyl)amino)methyl)pyridin-4-yl)-2-hydroxybenzoic acid] yielded a Ki of 4.8 ± 0.4 µM.

On to `CNCc1cccc(NCc2ccc(-c3ccc(O)c(C(=O)O)c3)o2)c1` [CDD-2510, 2-hydroxy-5-(5-(((3-((methylamino)methyl)phenyl)amino)methyl)furan-2-yl)benzoic acid], for which the Ki was 60 ± 10 µM.

`CNC(=O)Cc1cccc(NCc2cccc(-c3ccc(C(=O)O)c(O)c3)c2)c1` [CDD-2920, 3-hydroxy-3′-(((3-(2-(methylamino)-2-oxoethyl)phenyl)amino)methyl)-[1,1′-biphenyl]-4-carboxylic acid] gave a Ki of 87 ± 53 µM.

On to `CNC(=O)CCc1ccc(CNCc2cccc(NCc3ccc(-c4ccc(C(=O)O)c(O)c4)o3)c2)cc1` [CDD-2335, 2-hydroxy-4-(5-(((3-(((4-(3-(methylamino)-3-oxopropyl)benzyl)amino)methyl)phenyl)amino)methyl)furan-2-yl)benzoic acid], for which the Ki worked out at 13 ± 1.5 µM.

The compound `CNC(=O)C1CCC(C(=O)NCc2ccc(NCc3ccc(O)c(C(=O)O)c3)nc2)CC1` (stereo not drawn) [CDD-2395, 2-hydroxy-5-(((5-((4-(methylcarbamoyl)cyclohexane-1-carboxamido)methyl)pyridin-2-yl)amino)methyl)benzoic acid] yielded a Ki of 153 ± 28 µM.

In turn, `CNC(=O)CCC1CCN(C(=O)c2ccc(CNCc3ccc(O)c(C(=O)O)c3)s2)CC1` [CDD-2371, 2-hydroxy-5-((((5-(4-(3-(methylamino)-3-oxopropyl)piperidine-1-carbonyl)thiophen-2-yl)methyl)amino)methyl)benzoic acid] had an inhibition constant (Ki) of 217 ± 46 µM.

For `NCc1cncc(NCc2cccc(-c3ccc(C(=O)O)c(O)c3)c2)c1` [CDD-2975, 3′-(((5-(aminomethyl)pyridin-3-yl)amino)methyl)-3-hydroxy-[1,1′-biphenyl]-4-carboxylic acid], the Ki stood at 25 ± 14 µM.

In the case of `NCc1cccc(NCc2ccc(-c3cccc(C(=O)O)c3O)o2)c1` [CDD-2567, 3-(5-(((3-(aminomethyl)phenyl)amino)methyl)furan-2-yl)-2-hydroxybenzoic acid], the Ki was found to be 24 ± 1.5 µM.

For the compound `NCc1cccc(NCc2ccc(-c3ccc(C(=O)O)c(O)c3)cc2)c1` [CDD-2615, 4′-(((3-(aminomethyl)phenyl)amino)methyl)-3-hydroxy-[1,1′-biphenyl]-4-carboxylic acid], the Ki was found to be 14 ± 1.1 µM.

With `CNCc1cccc(NCc2cccc(-c3ccc(C(=O)O)c(O)c3)c2)c1` [CDD-2906, 3-hydroxy-3′-(((3-((methylamino)methyl)phenyl)amino)methyl)-[1,1′-biphenyl]-4-carboxylic acid], the Ki is 11 ± 2 µM.

The next assay has as its system E. coli expressing NDM-1.
Assay: not given
As to conditions: comparison of imipenem MIC shifts. In kind it is cell-based.
Consider `NCc1cccc(NC(=O)c2cccc(-c3ccc(C(=O)O)c(O)c3)c2)c1` [CDD-2985, 3′-((3-(aminomethyl)phenyl)carbamoyl)-3-hydroxy-[1,1′-biphenyl]-4-carboxylic acid], for which the synergy with imipenem entry is “reduced synergy compared to CDD-2376 and CDD-2511”.

For the compound `CNCc1cccc(NCc2ccc(-c3cccc(C(=O)O)c3O)o2)c1` [CDD-2522, 2-hydroxy-3-(5-(((3-((methylamino)methyl)phenyl)amino)methyl)furan-2-yl)benzoic acid], the synergy with imipenem entry was “reduced synergy compared to CDD-2376 and CDD-2511”.

With `NCc1cccc(N2Cc3ccc(-c4ccc(C(=O)O)c(O)c4)cc3C2)c1` [CDD-3080, 4-(2-(3-(aminomethyl)phenyl)isoindolin-5-yl)-2-hydroxybenzoic acid], the synergy with imipenem entry is “reduced synergy compared to CDD-2376 and CDD-2511”.
